Measured values from PMC5498157 (Chemical research in toxicology, 2017).
Where two headings read alike, the source gives them in different places.

Experiments:
[1] = molecular target: T1, ALKBH3 (Homo sapiens, UniProt Q96Q83); assay: Inhibition constant; type: biochemical; conditions: versus αKG, 37 °C
T1 sequence (Q96Q83 1-286): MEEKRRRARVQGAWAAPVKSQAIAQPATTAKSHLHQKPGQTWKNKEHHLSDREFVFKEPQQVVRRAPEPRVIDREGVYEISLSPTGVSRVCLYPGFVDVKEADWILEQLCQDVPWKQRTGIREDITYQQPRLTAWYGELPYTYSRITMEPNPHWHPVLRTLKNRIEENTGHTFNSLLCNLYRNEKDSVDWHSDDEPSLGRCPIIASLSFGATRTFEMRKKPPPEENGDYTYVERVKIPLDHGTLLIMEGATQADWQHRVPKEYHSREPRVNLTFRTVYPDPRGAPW

[2] = molecular target: T2, AlkB (Escherichia coli, UniProt P05050); assay: Inhibition constant; type: biochemical
[3] = molecular target: T1, ALKBH3; assay: Inhibition of ALKBH3 repair at tumor-relevant 2HG:αKG ratios; type: biochemical; conditions: L-2HG:αKG = 28:1, αKG 100 µM; range over all substrates
[4] = molecular target: T3, ALKBH2 (Homo sapiens, UniProt Q6NS38); assay: Inhibition of ALKBH2 repair at tumor-relevant 2HG:αKG ratios; type: biochemical; conditions: L-2HG:αKG = 28:1, αKG 100 µM; range over all substrates
T3 sequence (Q6NS38 1-261): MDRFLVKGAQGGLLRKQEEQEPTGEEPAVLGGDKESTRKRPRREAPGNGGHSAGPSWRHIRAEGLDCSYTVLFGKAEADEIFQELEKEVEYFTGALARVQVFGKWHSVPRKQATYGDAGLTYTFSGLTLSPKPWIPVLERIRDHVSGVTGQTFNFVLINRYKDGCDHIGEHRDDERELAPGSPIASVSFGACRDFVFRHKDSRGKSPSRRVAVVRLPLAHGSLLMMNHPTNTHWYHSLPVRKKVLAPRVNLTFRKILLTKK

[5] = system: ALKBH2 and ALKBH3; type: biochemical, human; conditions: L-2HG:αKG = 28:1, αKG 100 µM; range over both enzymes and all substrates
[6] = molecular target: T3, ALKBH2; assay: Inhibition constant; type: biochemical; conditions: for Ki: versus αKG, 37 °C
[7] = molecular target: T3, ALKBH2; conditions: 37 °C
[8] = molecular target: T1, ALKBH3; conditions: 37 °C
[9] = molecular target: T2, AlkB; conditions: 37 °C
[10] = AlkB, ds-m1A, versus αKG, 37 °C
[11] = AlkB, ds-m3C, versus αKG, 37 °C
[12] = AlkB, ss-m1A, versus αKG, 37 °C
[13] = AlkB, ss-m3C, versus αKG, 37 °C

T2 sequence (P05050 whole entry): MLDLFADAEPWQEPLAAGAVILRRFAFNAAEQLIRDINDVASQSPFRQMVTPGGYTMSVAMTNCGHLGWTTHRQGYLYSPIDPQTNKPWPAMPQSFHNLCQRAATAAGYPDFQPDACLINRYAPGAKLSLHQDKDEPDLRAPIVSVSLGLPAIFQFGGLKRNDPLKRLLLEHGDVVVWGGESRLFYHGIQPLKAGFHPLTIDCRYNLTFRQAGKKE

`O=C(O)CC[C@@H](O)C(=O)O` [D-2HG, D-2-hydroxyglutarate] was tested, and the Ki ([1]; ALKBH3, ss-m1A) was 545 ± 77 µM, the Ki ([1]; ALKBH3, ss-m3C) was 490 ± 46 µM and the Ki [2, 10] was 529 ± 126 µM. The Ki [2, 11] was 230 ± 55 µM, the Ki [2, 12] was 571 ± 166 µM and the Ki [2, 13] was 447 ± 113 µM.
For `O=C(O)CC[C@H](O)C(=O)O` [L-2HG, L-2-hydroxyglutarate], the “inhibition of ALKBH3 activity” value [3] was 31–40%, the Ki ([1]; ALKBH3, ss-m1A) was 185 ± 23 µM and the Ki ([1]; ALKBH3, ss-m3C) was 228 ± 16 µM. For the same molecule, the Ki [2, 10] was 598 ± 173 µM, the Ki [2, 11] was 308 ± 108 µM and the Ki [2, 12] was 337 ± 99 µM. The Ki [2, 13] was 276 ± 111 µM, the “inhibition of ALKBH2 activity” value [4] was 48–58% and the “inhibition of ALKBH2 and ALKBH3 repair activities” value [5] was 31–58%.
`O=C(O)CNC(=O)C(=O)O` [N-OG, N-oxalylglycine, reference compound] showed a Ki ([6]; ALKBH2, ds-m1A) of 16 ± 5 µM, a Ki ([6]; ALKBH2, ds-m3C) of 7 ± 2 µM and a Ki ([6]; ALKBH2, ss-m1A) of 30 ± 7 µM. For the same molecule, the Ki ([6]; ALKBH2, ss-m3C) was 40 ± 7 µM, the “potency relative to D- and L-2HG” value ([6]; from Ki values, all repair reactions) was “about 10 times” and the Ki ([1]; Ki, ALKBH3, ss-m1A) was 27 ± 4 µM. For the same molecule, the Ki ([1]; Ki, ALKBH3, ss-m3C) was 37 ± 3 µM, the Ki [2] was 2 ± 1.3 µM and the Ki ([2]; Ki, AlkB, ds-m3C, versus αKG, 37 °C) was 0.2 µM. The Ki ([2]; Ki, AlkB, ss-m1A, versus αKG, 37 °C) was 0.4 ± 0.1 µM and the Ki ([2]; Ki, AlkB, ss-m3C, versus αKG, 37 °C) was 0.4 ± 0.1 µM.
`O=C(O)CCC(=O)C(=O)O` [αKG, α-ketoglutarate] showed a Km ([7]; ALKBH2, ds-m1A) of 7.3 ± 0.9 µM, a kcat ([7]; ALKBH2, ds-m1A) of 0.0417 ± 0.0017 s⁻¹ and a Km ([7]; ALKBH2, ds-m3C) of 1.9 ± 0.4 µM. It also gave a kcat ([7]; ALKBH2, ds-m3C) of 0.0433 ± 0.0017 s⁻¹, a Km ([7]; ALKBH2, ss-m1A) of 4.1 ± 0.9 µM and a kcat ([7]; ALKBH2, ss-m1A) of 0.0183 ± 0.0017 s⁻¹. The Km ([7]; ALKBH2, ss-m3C) was 1.4 ± 0.2 µM, the kcat ([7]; ALKBH2, ss-m3C) was 0.0283 ± 0.0017 s⁻¹ and the Km ([8]; ALKBH3, ss-m1A) was 2.3 ± 0.1 µM. For the same molecule, the kcat ([8]; ALKBH3, ss-m1A) was 0.02 ± 0 s⁻¹, the Km ([8]; ALKBH3, ss-m3C) was 1.9 ± 0.4 µM and the kcat ([8]; ALKBH3, ss-m3C) was 0.0283 ± 0 s⁻¹. It also gave a Km ([9]; ds-m1A) of 12.7 ± 1.3 µM, a kcat ([9]; ds-m1A) of 0.08 ± 0.0033 s⁻¹ and a Km ([9]; ds-m3C) of 10.8 ± 1.9 µM. It also gave a kcat ([9]; ds-m3C) of 0.137 ± 0.0067 s⁻¹, a Km ([9]; ss-m1A) of 7.1 ± 1.1 µM and a kcat ([9]; ss-m1A) of 0.07 ± 0.0033 s⁻¹. The Km ([9]; ss-m3C) was 19.9 ± 1.3 µM and the kcat ([9]; ss-m3C) was 0.408 ± 0.012 s⁻¹.
